Reference: patent publication US9139502B2, “Use of an urushiol compound in preparation of pharmaceutical compositions for inhibiting Smad3 phosphorylation” (Southern Hospital, Southern Medical University, priority 2013, dated 2015)

How the values were obtained:
ERK = test: Western blot of ERK phosphorylation in UUO kidneys; format: in vivo, rat; conditions: UUO rats, GQ-5 40 mg/kg daily i.p. right after UUO, sacrificed day 14
Description: (§1) Male Sprague-Dawley rats with body weight 200 to 250 g were randomized into 3 groups (n=6 in each group): (1) sham operated rats; (2) UUO rats; (3) UUO+GQ-5 rats.
(§2) GQ-5 was dissolved in 5% propylene glycol.
(§3) (3) UUO+GQ-5 rats: daily intraperitoneal injection of GQ-5 (40 mg/kg body weight) right after UUO;
(§4) UUO was performed using an established protocol as described. GQ-5 was dissolved in 5% propylene glycol. Rats were administrated with GQ-5 as described before. All the rats were sacrificed 14 days after UUO. Western blot analyses were performed to examine the Smad4, Smad7 expression and p38, PI3K, ERK phosphorylation.

Smad7 = test: Western blot of Smad7 expression in UUO kidneys; format: in vivo, rat; conditions: UUO rats, GQ-5 40 mg/kg daily i.p. right after UUO, sacrificed day 14
Description: as §1, §2, §3, §4

collagen I = test: Collagen I expression in UUO kidney tissue (real-time PCR, immunohistochemistry, Western blot); format: in vivo, rat; conditions: UUO rats, GQ-5 40 mg/kg daily i.p., sacrificed day 14
Description: Male Sprague-Dawley rats were randomized into 4 groups (n=6 in each group): (1) sham operated rats; (2) UUO rats; (3) UUO+GQ-5 d1 rats; (4) UUO+GQ-5 d7 rats.
as §2
(3) UUO+GQ-5 d1 rats: daily intraperitoneal injection of GQ-5 (40 mg/kg body weight) right after UUO;
(4) UUO+GQ-5 d7 rats: daily intraperitoneal injection of GQ-5 (40 mg/kg body weight) 7 days after UUO.
UUO was performed using an established protocol as described. GQ-5 was dissolved in 5% propylene glycol. Rats were administrated with GQ-5 as described before. All the rats were sacrificed 14 days after UUO. HE staining, Masson trichrome staining were performed to examine the renal tissue injury, and Real-time PCR analyses, immunohistochemical staining, and Western blot analyses were performed to examine α-SMA, collagen I and fibronectin expression in kidney tissue

fibronectin = test: Real-time PCR of TGF-β1-induced fibronectin mRNA in vitro; format: cell-based, rat; conditions: NRK 52E and NRK 49F cells, GQ-5 0.1-2.5 μM pre-treated 1 h, TGF-β1 10 ng/ml 36 h
Description: (§5) NRK52E and NRK49F cells were cultured in DMEM-Ham's medium supplemented with 10% fetal bovine serum. The cells reached at approximately 50% confluence were used for in vitro experiments. Cells were serum-starved for 12 h, and randomized into 6 groups: (1) Controls; (2) GQ-5 only; (3) TGF-β1 only; (4) TGF-β1+GQ-5 0.1 μM; (5) TGF-β1+GQ-5 0.5 μM; (6) TGF-β1+GQ-5 2.5 μM
(2) GQ-5 only: pre-treated with GQ-5 (2.5 μM) for 1 h, followed with DMEM for 36 h
(3) TGF-β1 only: pre-treated with DMSO for 1 h, followed with TGF-β1 (10 ng/ml) for 36 h
(4) TGF-β1+GQ-5 0.1 μM: pre-treated with GQ-5 (0.1 μM) for 1 h, followed with TGF-β1 (10 ng/ml) for 36 h
(5) TGF-β1+GQ-5 0.5 μM: pre-treated with GQ-5 (0.5 μM) for 1 h, followed with TGF-β1 (10 ng/ml) for 36 h
(6) TGF-β1+GQ-5 2.5 μM: pre-treated with GQ-5 (2.5 μM) for 1 h, followed with TGF-β1 (10 ng/ml) for 36 h
GQ-5 was dissolved in DMSO. Cells were treated as described. Cells were collected for mRNA extraction. Real-rime PCR was performed to examine the mRNA expression of α-SMA, collagen I and fibronectin.

[1] = system: Smad3-dependent collagen I promoter; test: Luciferase reporter assay of Smad3-dependent collagen I promoter activity; format: cell-based, rat; conditions: NRK52E cells transfected with p(GAGA)12-luc, GQ-5 0.1, 0.5, 2.5 μM pre-treated 1 h, TGF-β1 10 ng/ml 24 h
Smad3 phosphorylation = test: Western blot of TGF-β1-induced Smad3 phosphorylation in vitro; format: cell-based, rat
Description: as §5, with “2.5 μM.” for “2.5 μM”
(2) GQ-5 only: pre-treated with GQ-5 (2.5 μM) for 1 h, followed with DMEM for 1 h
(3) TGF-β1 only: pre-treated with DMSO (0.1%) for 1 h, followed with TGF-β1 (10 ng/ml) for 1 h
(4) TGF-β1+GQ-5 0.1 μM: pre-treated with GQ-5 (0.1 μM) for 1 h, followed with TGF-β1 (10 ng/ml) for 1 h
(5) TGF-β1+GQ-5 0.5 μM: pre-treated with GQ-5 (0.5 μM) for 1 h, followed with TGF-β1 (10 ng/ml) for 1 h
(6) TGF-β1+GQ-5 2.5 μM: pre-treated with GQ-5 (2.5 μM) for 1 h, followed with TGF-β1 (10 ng/ml) for 1 h.
GQ-5 was dissolved in DMSO. Cells were treated as described. Cell lysates were immunoblotted with antibodies against phospho-Smad3, Smad3, phospho-Smad2, Smad2.
NRK52E cells were cultured in DMEM-Ham's medium supplemented with 10% fetal bovine serum. The cells reached at approximately 50% confluence were used for in vitro experiments. Cells were serum-starved for 12 h, and randomized into 8 groups: (1) Controls; (2) GQ-5 only; (3) TGF-β1 0.5 h; (4) TGF-β1 0.5 h+GQ-5; (5) TGF-β1 1.0 h; (6) TGF-β1 1.0 h+GQ-5; (7) TGF-β1 3.0 h; (8) TGF-β1 3.0 h+GQ-5;
(4) TGF-β1 0.5 h+GQ-5: pre-treated with GQ-5 (2.5 μM) for 1 h, followed with TGF-β1 (10 ng/ml) for 0.5 h
(6) TGF-β1 1.0 h+GQ-5: pre-treated with GQ-5 (2.5 μM) for 1 h, followed with TGF-β1 (10 ng/ml) for 1.0 h
(8) TGF-β1 3.0 h+GQ-5: pre-treated with GQ-5 (2.5 μM) for 1 h, followed with TGF-β1 (10 ng/ml) for 3.0 h
GQ-5 was dissolved in DMSO. Cells were treated as described. Cell lysates were immunoblotted with antibodies against phospho-Smad3, Smad3, phospho-Smad2, and Smad2.

p38 = test: Western blot of p38 phosphorylation in UUO kidneys; format: in vivo, rat; conditions: UUO rats, GQ-5 40 mg/kg daily i.p. right after UUO, sacrificed day 14
Description: as §1, §2, §3, §4

## CCCCCC/C=C\CCCCCCCc1cccc(O)c1O [GQ-5, 3-[(Z)-pentadec-8-enyl]catechol]
ERK
  phosphorylation of ERK: did not affect
Smad7
  expression of Smad7: did not affect
Collagen I
  up-regulation of collagen I at both mRNA and protein level: significantly inhibited
fibronectin
  TGF-β1-induced mRNA expression of fibronectin: significantly inhibited
[1]
  TGF-β1-induced Smad3-dependent collagen I promoter activity: significantly inhibited TGF-β1-induced Smad3-dependent collagen I promoter activity in a dose-dependent manner
Smad3 phosphorylation; NRK52E and NRK49F cells, GQ-5 2.5 μM only
  inhibitory effect in the absence of TGF-β1 stimulation: almost undetectable
Smad3 phosphorylation; NRK52E and NRK49F cells, GQ-5 0.1, 0.5, 2.5 μM pre-treated 1 h, TGF-β1 10 ng/ml 1 h
  TGF-β1-induced Smad3 phosphorylation, dose dependence: attenuated TGF-β1-induced Smad3 phosphorylation in a dose-dependent manner
Smad3 phosphorylation; NRK52E cells, GQ-5 2.5 μM pre-treated 1 h, TGF-β1 10 ng/ml 0.5, 1.0, 3.0 h
  TGF-β1-induced Smad3 phosphorylation, time dependence: attenuated TGF-β1-induced Smad3 phosphorylation in a time-dependent manner
p38
  phosphorylation of p38: did not affect
